# From patent US20190224166A1, “Compositions and Methods for Treating Muscle Loss” (Augusta University Research Institute, Inc., priority 2018, published 2019)
# Test system: quadriceps muscle
# Test: Proteomic analysis of quadriceps muscle of aged mice treated with 1-methyl-D-tryptophan (Table 1, TOPPGENE enrichment)
# Assay type: in vivo
# Method: Female mice 22 months of age were obtained from the National Institute on Aging and treated with saline (vehicle) or 1-methyl-D-tryptophan (1-MT, Sigma, 452483, lot#MKBZ1441V) at a low dose (10 mg/kg BW) or at a high dose (100 mg/kg BW). Mice were treated daily for 4 weeks. Treatments were administered i.p. with an injection volume of 0.2 ml following IACUC approved procedures. Mice were euthanized by CO2 overdose and muscles harvested for analysis. One quadriceps muscle was snap frozen for proteomics and the other quadriceps muscle fixed in buffered formalin for paraffin embedding and trichrome staining. The tibialis anterior was placed in PBS for amplex red assay.
# The IDO inhibitor, 1-methyl-D-tryptophan, blocks kynurenine production and reduces levels of ROS in muscle.
smiles,measurement,setting,value
Cn1cc(C[C@@H](N)C(=O)O)c2ccccc21 [1MT],1MT vs Control: UTP--glucose-1-phosphate uridylyltransferase,"Q91ZJ5, GN = Ugp2",0.9036
same,"1MT vs Control: Trifunctional enzyme subunit beta, mitochondrial","Q99JY0, GN = Hadhb",0.7
same,"1MT vs Control: Aconitate hydratase, mitochondrial","Q99KI0, GN = Aco2",0.8406
same,"1MT vs Control: Electron transfer flavoprotein subunit alpha, mitochondrial","Q99LC5, GN = Etfa",0.8462
same,1MT vs Control: O-acetyl-ADP-ribose deacetylase MACROD1,"Q922B1, GN = Macrod1",0.9167
same,1MT vs Control: Nucleoside diphosphate kinase B,"Q01768, GN = Nme2",0.9242
same,1MT vs Control: Transitional endoplasmic reticulum ATPase,"Q01853, GN = Vcp",0.904
same,1MT vs Control: Ubiquitin-like modifier-activating enzyme 1,"Q02053, GN = Uba1",0.5833
same,1MT vs Control: Voltage-dependent L-type calcium channel subunit alpha-1S,"Q02789, GN = Cacna1s",0.7143
same,"1MT vs Control: ATP synthase subunit alpha, mitochondrial","Q03265, GN = Atp5a1",0.6273
same,1MT vs Control: Corticosteroid-binding globulin,"Q06770, GN = Serpina6",0.3125
same,"1MT vs Control: Short-chain specific acyl-CoA dehydrogenase, mitochondrial","Q07417, GN = Acads",0.6
same,1MT vs Control: Protein-arginine deiminase type-2,"Q08642, GN = Padi2",0.3438
same,1MT vs Control: Puromycin-sensitive aminopeptidase,"Q11011, GN = Npepps",0.5
same,"1MT vs Control: 2-oxoglutarate dehydrogenase, mitochondrial","Q60597, GN = Ogdh",0.4671
same,1MT vs Control: Voltage-dependent anion-selective channel protein 3,"Q60931, GN = Vdac3",0.2609
same,1MT vs Control: Voltage-dependent anion-selective channel protein 1,"Q60932, GN = Vdac1",0.3333
same,1MT vs Control: Peroxiredoxin-2,"Q61171, GN = Prdx2",0.7895
same,"1MT vs Control: Hydroxyacyl-coenzyme A dehydrogenase, mitochondrial","Q61425, GN = Hadh",0.6364
same,1MT vs Control: Alpha-2-macroglobulin,"Q61838, GN = A2m",0.6316
same,1MT vs Control: Striated muscle-specific serine/threonine-protein kinase,"Q62407, GN = Speg",0.6667
same,"1MT vs Control: 10 kDa heat shock protein, mitochondrial","Q64433, GN = Hspe1",0.4
same,"1MT vs Control: Glycerol-3-phosphate dehydrogenase, mitochondrial","Q64521, GN = Gpd2",0.3077
same,1MT vs Control: Trifunctional purine biosynthetic protein adenosine-3,"Q64737, GN = Gart",0.8
same,1MT vs Control,"protein A2AUC9 Kelch-like protein 41, GN=Klhl41",1.077
same,1MT vs Control,"protein O08539 Myc box-dependent-interacting protein 1, GN=Bin1",1.064
same,1MT vs Control,"protein O70209 PDZ and LIM domain protein 3, GN=Pdlim3",1.412
same,1MT vs Control,"protein P04117 Fatty acid-binding protein, adipocyte, GN=Fabp4",1.1
same,1MT vs Control,"protein P05064 Fructose-bisphosphate aldolase A, GN=Aldoa",1.096
same,1MT vs Control,"protein P05132 cAMP-dependent protein kinase catalytic subunit alpha, GN=Prkaca",1
same,1MT vs Control,"protein P07309 Transthyretin, GN=Ttr",2.5
same,1MT vs Control,"protein P07310 Creatine kinase M-type, GN=Ckm",1.182
same,1MT vs Control,"protein P07758 Alpha-1-antitrypsin 1-1, GN=Serpina1a",1.091
same,1MT vs Control,"protein P08228 Superoxide dismutase [Cu—Zn], GN=Sod1",1.273
same,1MT vs Control,"protein P09103 Protein disulfide-isomerase, GN=P4hb",1.077
same,1MT vs Control,"protein P09411 Phosphoglycerate kinase 1, GN=Pgk1",1.089
same,1MT vs Control,"protein P10637 Microtubule-associated protein tau, GN=Mapt",3
same,1MT vs Control,"protein P10649 Glutathione S-transferase Mu 1, GN=Gstm1",1.152
same,1MT vs Control,"protein P13412 Troponin I, fast skeletal muscle, GN=Tnni2",1.5
same,1MT vs Control,"protein P13707 Glycerol-3-phosphate dehydrogenase [NAD(+)], cytoplasmic, GN=Gpd1",1.072
same,1MT vs Control,"protein P14231 Sodium/potassium-transporting ATPase subunit beta-2, GN=Atp1b2",1
same,1MT vs Control,"protein P15626 Glutathione S-transferase Mu 2, GN=Gstm2",1.111
same,1MT vs Control,"protein P16858 Glyceraldehyde-3-phosphate dehydrogenase, GN=Gapdh",1.167
same,1MT vs Control,"protein P17182 Alpha-enolase, GN=Eno1",1.039
same,1MT vs Control,"protein P17742 Peptidyl-prolyl cis-trans isomerase A, GN=Ppia",1.176
same,1MT vs Control,"protein P17751 Triosephosphate isomerase, GN=Tpi1",1.136
same,1MT vs Control,"protein P18826 Phosphorylase b kinase regulatory subunit alpha, skeletal muscle isoform, GN=Phka1",1.143
same,1MT vs Control,"protein P20029 78 kDa glucose-regulated protein, GN=Hspa5",1.522
same,1MT vs Control,"protein P21550 Beta-enolase, GN=Eno3",1.063
same,1MT vs Control,"protein P22599 Alpha-1-antitrypsin 1-2, GN=Serpina1b",1.028
same,1MT vs Control,"protein P23506 Protein-L-isoaspartate(D-aspartate) O-methyltransferase, GN=Pcmt1",1
same,1MT vs Control,"protein P23953 Carboxylesterase 1C, GN=Ces1c",1.08
same,1MT vs Control,"protein P26043 Radixin, GN=Rdx",1.267
same,1MT vs Control,"protein P26883 Peptidyl-prolyl cis-trans isomerase FKBP1A, GN=Fkbp1a",1.5
same,1MT vs Control,"protein P27546 Microtubule-associated protein 4, GN=Map4",3
same,1MT vs Control,"protein P28474 Alcohol dehydrogenase class-3, GN=Adh5",1.176
same,1MT vs Control,"protein P28654 Decorin, GN=Dcn",1.36
same,1MT vs Control,"protein P29699 Alpha-2-HS-glycoprotein, GN=Ahsg",1.111
same,1MT vs Control,"protein P31001 Desmin, GN=Des",1.133
same,1MT vs Control,"protein P45376 Aldose reductase, GN=Akr1b1",1.064
same,1MT vs Control,"protein P45591 Cofilin-2, GN=Cfl2",1
same,1MT vs Control,"protein P47791 Glutathione reductase, mitochondrial, GN=Gsr",1.25
same,1MT vs Control,"protein P47857 ATP-dependent 6-phosphofructokinase, muscle type, GN=Pfkm",1.013
same,1MT vs Control,"protein P50396 Rab GDP dissociation inhibitor alpha, GN=Gdi1",1.1875
same,1MT vs Control,"protein P51885 Lumican, GN=Lum",1.231
same,1MT vs Control,"protein P58252 Elongation factor 2, GN=Eef2",1.092
same,1MT vs Control,"protein P62631 Elongation factor 1-alpha 2, GN=Eef1a2",1.256
same,1MT vs Control,"protein P62908 40S ribosomal protein S3, GN=Rps3",1
same,1MT vs Control,"protein P63005 Platelet-activating factor acetylhydrolase IB subunit alpha, GN=Pafah1b1",1.25
same,1MT vs Control,"protein P63017 Heat shock cognate 71 kDa protein, GN=Hspa8",1.016
same,1MT vs Control,"protein P68134 Actin, alpha skeletal muscle, GN=Acta1",1.126
same,1MT vs Control,"protein P70296 Phosphatidylethanolamine-binding protein 1, GN=Pebp1",1.024
same,1MT vs Control,"protein P70402 Myosin-binding protein H, GN=Mybph",1.156
same,1MT vs Control,"protein P82349 Beta-sarcoglycan, GN=Sgcb",1
same,1MT vs Control,"protein P97384 Annexin A11, GN=Anxa11",1.375
same,1MT vs Control,"protein Q3TJD7 PDZ and LIM domain protein 7, GN=Pdlim7",1.111
same,1MT vs Control,"protein Q3TVI8 Pre-B-cell leukemia transcription factor-interacting protein 1, GN=Pbxip1",1
same,1MT vs Control,"protein Q3TXS7 26S proteasome non-ATPase regulatory subunit 1, GN=Psmd1",1.333
same,1MT vs Control,"protein Q3U0V1 Far upstream element-binding protein 2, GN=Khsrp",1
same,1MT vs Control,"protein Q3UZA1 CapZ-interacting protein, GN=Rcsd1",1.2
same,1MT vs Control,"protein Q5SX39 Myosin-4, GN=Myh4",1.106
same,1MT vs Control,"protein Q7TSH2 Phosphorylase b kinase regulatory subunit beta, GN=Phkb",1.083
same,1MT vs Control,"protein Q8BGQ7 Alanine--tRNA ligase, cytoplasmic, GN=Aars",1.5
same,1MT vs Control,"protein Q8BU85 Methionine-R-sulfoxide reductase B3, mitochondrial, GN=Msrb3",2.5
same,1MT vs Control,"protein Q8C7E7 Starch-binding domain-containing protein 1, GN=Stbd1",1
same,1MT vs Control,"protein Q8CGC7 Bifunctional glutamate/proline--tRNA ligase, GN=Eprs",1.333
same,1MT vs Control,"protein Q8CHP8 Phosphoglycolate phosphatase, GN=Pgp",1
same,1MT vs Control,"protein Q8CHS7 Dehydrogenase/reductase SDR family member 7C, GN=Dhrs7c",2.667
same,1MT vs Control,"protein Q8CHT0 Delta-1-pyrroline-5-carboxylate dehydrogenase, mitochondrial, GN=Aldh4a1",1
same,1MT vs Control,"protein Q8K4Z3 NAD(P)H-hydrate epimerase, GN=Apoa1bp",1
same,1MT vs Control,"protein Q8R1G2 Carboxymethylenebutenolidase homolog, GN=Cmbl",1.235
same,1MT vs Control,"protein Q8VCM7 Fibrinogen gamma chain, GN=Fgg",1.25
same,1MT vs Control,"protein Q8VHX6 Filamin-C, GN=Flnc",1.059
same,1MT vs Control,"protein Q9CPU0 Lactoylglutathione lyase, GN=Glo1",1.095
same,1MT vs Control,"protein Q9CZ30 Obg-like ATPase 1, GN=Ola1",3.25
same,1MT vs Control,"protein Q9D7X3 Dual specificity protein phosphatase 3, GN=Dusp3",1.5
same,1MT vs Control,"protein Q9D8N0 Elongation factor 1-gamma, GN=Eef1g",1.1
same,1MT vs Control,"protein Q9D172 ES1 protein homolog, mitochondrial, GN=D10Jhu81e",1.2
same,1MT vs Control,"protein Q9ESD7 Dysferlin, GN=Dysf",3
same,1MT vs Control,"protein Q9ET78 Junctophilin-2, GN=Jph2",1.381
same,1MT vs Control,"protein Q9ET80 Junctophilin-1, GN=Jph1",1.143
same,1MT vs Control,"protein Q9JKB3 Y-box-binding protein 3, GN=Ybx3",1.333
same,1MT vs Control,"protein Q9JKS4 LIM domain-binding protein 3, GN=Ldb3",1.037
same,1MT vs Control,"protein Q9QYG0 Protein NDRG2, GN=Ndrg2",1.015
same,1MT vs Control,"protein Q9R0Y5 Adenylate kinase isoenzyme 1, GN=Ak1",1.133
same,1MT vs Control,"protein Q9R062 Glycogenin-1, GN=Gyg1",1.538
same,1MT vs Control,"protein Q9WUZ7 SH3 domain-binding glutamic acid-rich protein, GN=Sh3bgr",1.057
same,1MT vs Control,"protein Q9Z1Z2 Serine-threonine kinase receptor-associated protein, GN=Strap",1.5
same,1MT vs Control,"protein Q9Z2U0 Proteasome subunit alpha type-7, GN=Psma7",3
same,1MT vs Control,"protein Q70KF4 Cardiomyopathy-associated protein 5, GN=Cmya5",1
same,1MT vs Control,"protein Q76MZ3 Serine/threonine-protein phosphatase 2A 65 kDa regulatory subunit A alpha isoform, GN=Ppp2r1a",1.125
same,1MT vs Control,"protein Q91VI7 Ribonuclease inhibitor, GN=Rnh1",1.111
same,1MT vs Control,"protein Q91YE8 Synaptopodin-2, GN=Synpo2",1.077
same,1MT vs Control,"protein Q99LX0 Protein deglycase DJ-1, GN=Park7",1.194
same,1MT vs Control,"protein Q99PR8 Heat shock protein beta-2, GN=Hspb2",1.5
same,1MT vs Control,"protein Q924M7 Mannose-6-phosphate isomerase, GN=Mpi",1.111
same,1MT vs Control,"protein Q04857 Collagen alpha-1(VI) chain, GN=Col6a1",1.5
same,1MT vs Control,"protein Q60864 Stress-induced-phosphoprotein 1, GN=Stip1",1.167
same,1MT vs Control,"protein Q61292 Laminin subunit beta-2, GN=Lamb2",1
same,1MT vs Control,"protein Q61584 Fragile X mental retardation syndrome-related protein 1, GN=Fxr1",1
same,1MT vs Control,"protein Q62234 Myomesin-1, GN=Myom1",1.113
same,1MT vs Control,"protein Q62446 Peptidyl-prolyl cis-trans isomerase FKBP3, GN=Fkbp3",1.429
same,1MT vs Control,"protein Q64105 Sepiapterin reductase, GN=Spr",1.5
same,1MT vs Control,"protein Q64727 Vinculin, GN=Vcl",1.333
